Results taken from PubChem BioAssay (NCI).
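Five compound concentrations were applied to cells in 96-well plates for 48 hours; endpoints were derived by simple linear interpolation of the resulting dose-response curve. TGI is the concentration that stops growth completely.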

Tests used:
Experiment in all cases: NCI-60 cell line screen, 48 h
SF-295 CNS = system: SF-295 CNS
TK-10 renal = system: TK-10 renal
SNB-19 CNS = system: SNB-19 CNS
SW-620 colon = system: SW-620 colon
SK-OV-3 ovarian = system: SK-OV-3 ovarian
BT-549 breast = system: BT-549 breast
A498 renal = system: A498 renal
PC-3 prostate = system: PC-3 prostate
MDA-MB-435 = system: MDA-MB-435
SF-539 CNS = system: SF-539 CNS

| Structure (SMILES) | TGI (SF-295 CNS) | TGI (TK-10 renal) | TGI (SNB-19 CNS) | TGI (SW-620 colon) | TGI (SK-OV-3 ovarian) | TGI (BT-549 breast) | TGI (A498 renal) | TGI (PC-3 prostate) | TGI (MDA-MB-435) | TGI (SF-539 CNS) |
| --- | --- | --- | --- | --- | --- | --- | --- | --- | --- | --- |
| CCCC(C(=O)OC)C1N=C(NC#N)N(Cc2ccccc2)C1=O (stereo unspecified) | > 100 µM | > 100 µM | > 100 µM | > 100 µM | > 100 µM |  |  |  |  |  |
| COC(=O)[C@H](Cc1ccccc1)NC(=O)N(CCNC(=O)OC(C)(C)C)c1ccccc1 | > 100 µM |  | > 100 µM | > 100 µM | > 100 µM | > 100 µM | > 100 µM | > 100 µM | > 100 µM |  |
| O=C1N[C@H](C(=O)O)[C@@H](c2ccc(OCc3ccccc3)cc2)O1 | 79.6 µM | 84.4 µM | 45 µM | > 100 µM | > 100 µM | > 100 µM |  | > 100 µM | > 100 µM |  |
| COc1ccc(C=O)cc1OS(=O)(=O)C(F)(F)C(F)(F)C(F)(F)C(F)(F)F | 53 µM | > 82.9 µM | > 100 µM | > 87.4 µM | > 90.2 µM | > 100 µM | > 68.2 µM | > 100 µM | 48.9 µM | 41 µM |
| OC(Cc1cc(CC(O)(C(F)(F)F)C(F)(F)F)nc(CC(O)(C(F)(F)F)C(F)(F)F)c1)(C(F)(F)F)C(F)(F)F | 2.58 µM | > 10 µM | 8.79 µM | > 10 µM | > 10 µM | 6.1 µM | 3.22 µM | 0.776 µM | 7.94 µM | 3.44 µM |
| CC(C)C(CCOS(=O)(=O)O)CCC(C)[C@H]1[C@@H](O)C(O)C2[C@]3(O)C[C@@H](O)C4(O)C[C@@H](O)CC[C@]4(C)C3CC[C@@]21C (stereo partly specified) | > 100 µM | > 100 µM | > 100 µM | > 100 µM | > 100 µM |  |  |  |  | > 100 µM |
| CC1CCc2c(sc3ncnc(N/N=C/c4ccc(Cl)cc4)c23)C1 (stereo unspecified) | 75.5 µM | > 100 µM | 93 µM | > 100 µM | > 100 µM |  |  |  |  |  |
| OCC1OC(n2cnc3c(Cl)nc(Nc4ccc(Cl)c(Cl)c4)nc32)CC1O (stereo unspecified) | 19.3 µM | 35.6 µM | > 50 µM | 27.5 µM | 33.4 µM | 22.3 µM | 18.9 µM | 37.1 µM | 22.3 µM |  |
| CC1(C)[C@H]2Cc3cc4nc5ccccn5c4cc3[C@@H]1C2 | 30.8 µM | 33 µM | 31.8 µM | 52.5 µM | 36.4 µM | 41.5 µM |  | 41.5 µM | 36.7 µM | 33.6 µM |
| Cc1ccc(-c2cc(=O)c(=O)[nH][nH]2)cc1 | > 100 µM | > 100 µM |  | > 100 µM | > 100 µM | > 100 µM | > 100 µM | > 100 µM | > 100 µM | > 100 µM |
| Cn1c(=S)[nH]c(N)c(Cc2ccccc2)c1=O | > 100 µM | > 100 µM | > 100 µM | > 100 µM | > 100 µM | > 100 µM | > 100 µM | > 100 µM | > 100 µM | > 100 µM |
| CC(N)C(C)c1ccccc1 (stereo unspecified) | > 100 µM | > 100 µM | > 100 µM | > 100 µM | > 100 µM |  | > 100 µM |  |  | > 100 µM |
| CC(C)c1c(O[Si](C(C)C)(C(C)C)C(C)C)cc2c(c1O)CC[C@H]1C(C)(C)CCC[C@]21C | > 100 µM | > 100 µM | > 100 µM | > 100 µM | > 100 µM |  | > 100 µM | > 100 µM | > 100 µM | > 100 µM |
| Cc1cc(=O)oc2c(C)c3oc(CBr)cc3cc12 | 34.3 µM | 89.6 µM | > 100 µM | 30.2 µM | 75.4 µM | 33.5 µM |  | 35 µM | 37.7 µM | 50.7 µM |
| COc1ccc(Nc2cc(=O)[nH]c(=O)[nH]2)cc1 | > 100 µM | > 100 µM | > 100 µM | > 100 µM |  | > 100 µM | > 100 µM | > 100 µM | > 100 µM | > 100 µM |
| O=C(Nc1ccc(F)cc1)c1cc2c(cc1Cl)Sc1nccn1S2(=O)=O | > 100 µM |  | > 100 µM | > 100 µM | > 100 µM |  | 74 µM | > 100 µM | > 100 µM | > 100 µM |
| O=c1c2cc([N+](=O)[O-])ccc2n2n1CCCCC2 | > 100 µM | > 100 µM | > 100 µM | > 100 µM | > 100 µM |  | > 100 µM | > 100 µM | > 100 µM | > 100 µM |
| COc1ccc(CNc2nc3cc(C(F)(F)F)ccc3nc2C(=O)O)cc1 | > 100 µM |  | > 100 µM | > 100 µM | > 100 µM | 69.6 µM | 53 µM | > 100 µM | 50.6 µM | 49.2 µM |
| C=CCOCn1cnc2c(=O)[nH]c(N)nc21 | > 100 µM | > 100 µM | > 100 µM | > 100 µM | > 100 µM |  | > 100 µM | > 100 µM | > 100 µM | > 100 µM |
| C#CCn1c(=O)ccn(/C(=C/C(=O)OCC)C(=O)OCC)c1=O | > 60.5 µM | 3.68 µM | 40.7 µM |  | > 100 µM | 23.2 µM | 30.8 µM | 28.1 µM | 28.1 µM | 3.99 µM |
| Cc1cccc(-c2nc(-c3cnccn3)n(Cc3ccccc3)n2)c1 | > 100 µM |  | > 100 µM | > 100 µM | > 100 µM | > 100 µM |  | > 100 µM | > 100 µM | > 100 µM |
| O=CC1OC(=O)c2cc(O)c(O)c(O)c2-c2c(cc(O)c(O)c2O)C(=O)OC1C1OC(=O)c2cc(O)c(O)c(O)c2-c2c(O)c(O)c3oc(=O)c4c(c(O)c(O)c5oc(=O)c2c3c54)-c2c(cc(O)c(O)c2O)C(=O)OCC1O (stereo unspecified) | 89.4 µM |  | > 100 µM | 47.7 µM | > 100 µM | > 100 µM | > 100 µM | > 100 µM | 46.4 µM |  |
| CC/C=C\C=C/C(=O)N/C=C/CCC |  | > 100 µM | > 100 µM | > 100 µM | > 100 µM | > 100 µM | > 100 µM | > 100 µM | > 100 µM | > 100 µM |
| [O-][N+]1=C2CCC/C(=N/O)C2(O)C2CCCCC21N1CCOCC1 (stereo unspecified) | > 100 µM | > 100 µM | > 100 µM | > 100 µM | > 100 µM | > 100 µM |  | > 100 µM | > 100 µM | > 100 µM |
